The text below walks through data of patent US11352344B2, “Antagonists of the muscarinic acetylcholine receptor M4” (Vanderbilt University, priority 2017, dated 2022).

For this experiment, the target named is T1, Human M4 (Homo sapiens, UniProt P08173).
T1 construct: expressed in transfected cells; host or cells: CHO-K1 (Chinese hamster ovary) cells, stably co-transfected with Gqi5
T1 sequence (P08173 1-479): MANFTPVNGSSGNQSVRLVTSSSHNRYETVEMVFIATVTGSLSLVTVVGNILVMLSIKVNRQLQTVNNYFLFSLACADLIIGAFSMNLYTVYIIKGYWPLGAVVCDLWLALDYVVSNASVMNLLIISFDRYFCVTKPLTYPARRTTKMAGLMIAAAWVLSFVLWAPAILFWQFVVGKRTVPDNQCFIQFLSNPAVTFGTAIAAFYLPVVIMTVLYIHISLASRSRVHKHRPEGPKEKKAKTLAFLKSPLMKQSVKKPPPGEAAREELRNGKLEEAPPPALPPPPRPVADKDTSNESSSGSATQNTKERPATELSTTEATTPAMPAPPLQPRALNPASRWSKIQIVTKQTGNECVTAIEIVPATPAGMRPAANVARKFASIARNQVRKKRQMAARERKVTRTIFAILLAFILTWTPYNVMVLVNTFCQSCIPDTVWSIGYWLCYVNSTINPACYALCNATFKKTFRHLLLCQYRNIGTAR
In words: mAChR M4 cell-based functional assay (calcium flux, antagonism of EC80 acetylcholine response). The note with it: for remaining activity at 30 µM: % ACh maximum at 30 μM, human M4, read-out: Emin; for IC50: M4/Gqi5/CHO-K1 cells, decrease of response to EC80 acetylcholine. On the procedure:
Human or rat M4 cDNA, along with the chimeric G protein Gqi5, were transfected into Chinese hamster ovary (CHO-K1) cells purchased from the American Type Culture Collection using Lipofectamine2000. M4/Gqi5/CHO cells were grown in Ham's F-12 medium containing 10% heat-inactivated fetal bovine serum (FBS), 20 mM HEPES, 500 μg/mL G418 sulfate, and 200 μg/mL Hygromycin B.
For high throughput measurement of agonist-evoked increases in intracellular calcium, CHO-K1 cells stably expressing muscarinic receptors were plated in growth medium lacking G418 and hygromycin at 15,000 cells/20 μL/well in Greiner 384-well black-walled, tissue culture (TC)-treated, clear-bottom plates (VWR). Cells were incubated overnight at 37° C. and 5% CO2. The next day, cells were washed using an ELX 405 (BioTek) with assay buffer; the final volume was then aspirated to 20 μL. Next, 20 μL of a 2.3 μM stock of Fluo-4/acetoxymethyl ester (Invitrogen, Carlsbad, Calif.), prepared as a 2.3 mM stock in DMSO and mixed in a 1:1 ratio with 10% (w/v) Pluronic F-127 and diluted in assay buffer, was added to the wells and the cell plates were incubated for 50 min at 37° C. and 5% CO2. Dye was removed by washing with the ELX 405 and the final volume was aspirated to 20 μL. Compound master plates were formatted in a 10 point concentration-response curve (CRC) format (1:3 dilutions) in 100% DMSO with a starting concentration of 10 or 1 mM using a BRAVO liquid handler (Agilent). Test compound CRCs were then transferred to daughter plates (240 nL) using the Echo acoustic plate reformatter (Labcyte, Sunnyvale, Calif.) and then diluted into assay buffer (40 μL) to a 2× stock using a Thermo Fisher Combi (Thermo Fisher Scientific, Waltham, Mass.).
Calcium flux was measured using the Functional Drug Screening System (FDSS) 6000 or 7000 (Hamamatsu Corporation, Tokyo, Japan) as an increase in the fluorescent static ratio. Compounds were applied to cells (20 μL, 2×) using the automated system of the FDSS at 2 seconds into the protocol and the data were collected at 1 Hz. At 143 s, 10 μL of an EC20 concentration of the muscarinic receptor agonist acetylcholine was added (5×), followed by the addition of 12 μL of an EC80 concentration of acetylcholine at the 268 s time point (5×). Agonist activity was analyzed as a concentration-dependent increase in calcium mobilization upon compound addition. Positive allosteric modulator activity was analyzed as a concentration-dependent increase in the EC20 acetylcholine response. Antagonist activity was analyzed as a concentration-dependent decrease in the EC80 acetylcholine response; for the purposes of the tables herein, an IC50 (inhibitory concentration 50) was calculated as a concentration-dependent decrease of the response elicited by an EC80 concentration of acetylcholine. Concentration-response curves were generated using a four-parameter logistical equation in XLFit curve fitting software (IDBS, Bridgewater, N.J.) for Excel (Microsoft, Redmond, Wash.) or Prism (GraphPad Software, Inc., San Diego, Calif.) or the Dotmatics software platform (Dotmatics, Bishop's Stortford, UK).
Compounds were synthesized as described above. Activity (IC50 and Emin) was determined in the mAChR M4 cell-based functional assay as described above and the data are shown in Table 5. The compound numbers correspond to the compound numbers used in Examples 1-4 and Tables 1-4.

`Cc1cnn(C)c1-c1ccc(NCCC2CCC3CN(CC45CC6CC(CC(C6)C4)C5)CC23)nn1` (stereo not drawn) [Compound 18, N-[2-[2-(1-adamantylmethyl)-3,3a,4,5,6,6a-hexahydro-1H-cyclopenta[c]pyrrol-4-yl]ethyl]-6-(2,4-dimethylpyrazol-3-yl)pyridazin-3-amine]: the remaining activity at 30 µM was determined as 3.52% and the IC50 (as a rule, the concentration that inhibits the measured activity by half) was 0.402 µM.

As for `Cc1cnn(C)c1-c1ccc(NCCC2CCC3CN(CCC(C)(C)C)CC23)nn1` (stereo not drawn) [Compound 10, N-[2-[2-(3,3-Dimethylbutyl)-3,3a,4,5,6,6a-hexahydro-1H-cyclopenta[c]pyrrol-4-yl]ethyl]-6-(2,4-dimethylpyrazol-3-yl)pyridazin-3-amine], the remaining activity at 30 µM was found to be 4.47% and the IC50 amounted to 0.13 µM.

Turning to `Cc1cnn(C)c1-c1ccc(OC2CCC3CN(CCc4ccccc4)CC32)nn1` (stereo not drawn) [Compound 9, 4-[6-(2,4-dimethylpyrazol-3-yl)pyridazin-3-yl]oxy-2-(2-phenylethyl)-3,3a,4,5,6,6a-hexahydro-1H-cyclopenta[c]pyrrole], the remaining activity at 30 µM was 29.6% and the IC50 is more than 10 µM.

Consider `Cc1cnn(C)c1-c1ccc(NCC2CCC3CN(CCc4ccccc4)CC23)nn1` (stereo not drawn) [Compound 23, 6-(2,4-dimethylpyrazol-3-yl)-N-[[2-(2-phenylethyl)-3,3a,4,5,6,6a-hexahydro-1H-cyclopenta[c]pyrrol-4-yl]methyl]pyridazin-3-amine], for which the remaining activity at 30 µM amounted to 5.96% and the IC50 came out at 0.766 µM.

Regarding `Cc1cnn(C)c1-c1ccc(NC2CCC3CN(CCC(C)(C)C)CC32)nn1` (stereo not drawn) [Compound 1, 2-(3,3-Dimethylbutyl)-N-[6-(2,4-dimethylpyrazol-3-yl)pyridazin-3-yl]-3,3a,4,5,6,6a-hexahydro-1H-cyclopenta[c]pyrrol-4-amine], the remaining activity at 30 µM was found to be 31.1% and the IC50 is more than 10 µM.

For `Cc1cccnc1CN1CC2CCC(CNc3ccc(-c4c(C)cnn4C)nn3)C2C1` (stereo not drawn) [Compound 22, 6-(2,4-dimethylpyrazol-3-yl)-N-[[2-[(3-methyl-2-pyridyl)methyl]-3,3a,4,5,6,6a-hexahydro-1H-cyclopenta[c]pyrrol-4-yl]methyl]pyridazin-3-amine], the remaining activity at 30 µM worked out at 10.8% and the IC50 turned out to be 1.5 µM.

On to `Cc1cccnc1CN1CC2CCC(Oc3ccc(-c4c(C)cnn4C)nn3)C2C1` (stereo not drawn) [Compound 4, 4-[6-(2,4-Dimethylpyrazol-3-yl)pyridazin-3-yl]oxy-2-[(3-methyl-2-pyridyl)methyl]-3,3a,4,5,6,6a-hexahydro-1H-cyclopenta[c]pyrrole], for which the remaining activity at 30 µM is 31.9% and the IC50 was more than 10 µM.

Turning to `Cc1cnn(C)c1-c1ccc(NC2CCC3CN(CC4CC5C=CC4C5)CC32)nn1` (stereo not drawn) [Compound 3, 2-(5-bicyclo[2.2.1]hept-2-enylmethyl)-N-[6-(2,4-dimethylpyrazol-3-yl)pyridazin-3-yl]-3,3a,4,5,6,6a-hexahydro-1H-cyclopenta[c]pyrrol-4-amine], the remaining activity at 30 µM turned out to be 14% and the IC50 is 3.28 µM.

Turning to `Cc1cnn(C)c1-c1ccc(OC2CCC3CN(CC45CC6CC(CC(C6)C4)C5)CC32)nn1` (stereo not drawn) [Compound 6, 2-(1-adamantylmethyl)-4-[6-(2,4-dimethylpyrazol-3-yl)pyridazin-3-yl]oxy-3,3a,4,5,6,6a-hexahydro-1H-cyclopenta[c]pyrrole], the remaining activity at 30 µM amounted to 3.95% and the IC50 was 1.03 µM.

In the case of `Cc1cnn(C)c1-c1ccc(OC2CCC3CN(CC4CC5C=CC4C5)CC32)nn1` (stereo not drawn) [Compound 7, 2-(5-bicyclo[2.2.1]hept-2-enylmethyl)-4-[6-(2,4-dimethylpyrazol-3-yl)pyridazin-3-yl]oxy-3,3a,4,5,6,6a-hexahydro-1H-cyclopenta[c]pyrrole], the remaining activity at 30 µM came out at 5.46% and the IC50 is 1.36 µM.

For the compound `Cc1cccnc1CN1CC2CCC(CCNc3ccc(-c4c(C)cnn4C)nn3)C2C1` (stereo not drawn) [Compound 14, 6-(2,4-dimethylpyrazol-3-yl)-N-[2-[2-[(3-methyl-2-pyridyl)methyl]-3,3a,4,5,6,6a-hexahydro-1H-cyclopenta[c]pyrrol-4-yl]ethyl]pyridazin-3-amine], the remaining activity at 30 µM is 7.73% and the IC50 was determined as 1.78 µM.

Turning to `Cc1cnn(C)c1-c1ccc(NCCC2CCC3CN(Cc4ccccc4)CC23)nn1` (stereo not drawn) [Compound 15, N-[2-(2-benzyl-3,3a,4,5,6,6a-hexahydro-1H-cyclopenta[c]pyrrol-4-yl)ethyl]-6-(2,4-dimethylpyrazol-3-yl)pyridazin-3-amine], the remaining activity at 30 µM was 8.5% and the IC50 is 2.26 µM.

For `Cc1cnn(C)c1-c1ccc(NCCC2CCC3CN(CC4CCCOC4)CC23)nn1` (stereo not drawn) [Compound 11, 6-(2,4-dimethylpyrazol-3-yl)-N-[2-[2-(tetrahydropyran-3-ylmethyl)-3,3a,4,5,6,6a-hexahydro-1H-cyclopenta[c]pyrrol-4-yl]ethyl]pyridazin-3-amine], the remaining activity at 30 µM came to 20.9% and the IC50 was more than 10 µM.

`Cc1cnn(C)c1-c1ccc(NCC2CCC3CN(CC4CC5C=CC4C5)CC23)nn1` (stereo not drawn) [Compound 21, N-[[2-(5-bicyclo[2.2.1]hept-2-enylmethyl)-3,3a,4,5,6,6a-hexahydro-1H-cyclopenta[c]pyrrol-4-yl]methyl]-6-(2,4-dimethylpyrazol-3-yl)pyridazin-3-amine]: the remaining activity at 30 µM is 5.19% and the IC50 amounted to 0.055 µM.

`Cc1cnn(C)c1-c1ccc(NCCC2CCC3CN(CC4CC5C=CC4C5)CC23)nn1` (stereo not drawn) [Compound 13, N-[2-[2-(5-bicyclo[2.2.1]hept-2-enylmethyl)-3,3a,4,5,6,6a-hexahydro-1H-cyclopenta[c]pyrrol-4-yl]ethyl]-6-(2,4-dimethylpyrazol-3-yl)pyridazin-3-amine]: the remaining activity at 30 µM was 3.75% and the IC50 was found to be 0.065 µM.

As for `Cc1cnn(C)c1-c1ccc(OC2CCC3CN(Cc4ccccc4)CC32)nn1` (stereo not drawn) [Compound 8, 2-benzyl-4-[6-(2,4-dimethylpyrazol-3-yl)pyridazin-3-yl]oxy-3,3a,4,5,6,6a-hexahydro-1H-cyclopenta[c]pyrrole], the remaining activity at 30 µM is 43.3% and the IC50 was more than 10 µM.

Regarding `Cc1cnn(C)c1-c1ccc(NCC2CCC3CN(CC4CCCOC4)CC23)nn1` (stereo not drawn) [Compound 24, 6-(2,4-dimethylpyrazol-3-yl)-N-[[2-(tetrahydropyran-3-ylmethyl)-3,3a,4,5,6,6a-hexahydro-1H-cyclopenta[c]pyrrol-4-yl]methyl]pyridazin-3-amine], the remaining activity at 30 µM turned out to be 22.6% and the IC50 is more than 10 µM.

In the case of `Cc1cnn(C)c1-c1ccc(NCC2CCC3CN(CC4CCOCC4)CC23)nn1` (stereo not drawn) [Compound 25, 6-(2,4-dimethylpyrazol-3-yl)-N-[[2-(tetrahydropyran-4-ylmethyl)-3,3a,4,5,6,6a-hexahydro-1H-cyclopenta[c]pyrrol-4-yl]methyl]pyridazin-3-amine], the remaining activity at 30 µM was determined as 27.8% and the IC50 is more than 10 µM.
